Measured values reported in paper PMC8838787, “The Antiproliferative and Apoptotic Effects of a Novel Quinazoline Carrying Substituted-Sulfonamides: In Vitro and Molecular Docking Study” (Molecules, 2022).

Experiments:
HUVEC normal cells = experiment: MTT cell viability assay, normal HUVEC; assay type: cell-based; details: Homo sapiens, 48 h, average ± SD (n = 3)
Protocol: (§1) Compounds 4a–n were subjected to the cytotoxicity screening of the cell lines MCF-7 (breast), LoVo (colon), HepG2 (liver) and A549 (lung) carcinoma cells as well as HUVEC normal cell lines. The MTT assay was employed to assess cytotoxicity after 48 h of treatment with different concentrations of each compound and doxorubicin was used as a reference drug. The results were presented in Table 1 as growth inhibitory concentration (IC50 values).
(§2) Cell viability was determined using 3-(4,5-dimethylthiazol-2-yl)-2,5-diphenyl tetrazolium bromide (MTT) assay as stated previously. In brief, A549 (lung), HepG2 (liver), LoVo (colon), MCF-7 (breast) cancer cells as well as normal cells (HUVEC) were seeded in 96-well plates (10^5 per well) and compounds were added in a different final concentration. All cells were treated for 48 h, and then 10μL of MTT reagent (5 mg/mL) was added to each well and further incubated for 4 h. Thereafter, 0.1 mL of acidified isopropanol was added to solubilize formazan product and the developed color was measured at 570 nm in Microplate ELISA Reader (BioTek, Elx-800, Winooski, VT, USA). The IC50 values (concentration required for 50% inhibition of cell viability) were calculated using dose response curve. Cell viability was calculated as = (Ab Treated/Ab Control) × 100.
(§3) The A549, HepG2, LoVo and MCF-7 cancer cell lines were obtained from the German Collection of Microorganisms and Cell Cultures (DSMZ) (Braunschweig, Germany). For Human umbilical vein endothelial cells (HUVEC cells), it was purchased from American Type Culture Collection (16549; Cat no. PCS-100-010; ATTCC, Manassas, VA, USA).

[1] = system: HepG2 (liver) cancer cells; experiment: MTT cell viability assay, HepG2; assay type: cell-based; details: Homo sapiens, 48 h, average ± SD (n = 3)
Protocol: as §1, §2, §3

A549 (lung) cancer cells = experiment: MTT cell viability assay, A549; assay type: cell-based; details: Homo sapiens, A549, 48 h, average ± SD (n = 3)
Protocol: as §1, §2, §3

[2] = system: MCF-7 (breast) cancer cells; experiment: MTT cell viability assay, MCF-7; assay type: cell-based, human; details: for IC50: Homo sapiens, MCF7, 48 h, average ± SD (n = 3); for cytotoxic activity (in words, SAR discussion): 48 h
Protocol: as §1, §2, §3

[3] = system: LoVo (colon) cancer cells; experiment: MTT cell viability assay, LoVo; assay type: cell-based; details: Homo sapiens, 48 h, average ± SD (n = 3)
Protocol: as §1, §2, §3

SMILES | IC50 (HUVEC normal cells) [µM] | IC50 [1] [µM] | IC50 (A549 (lung) cancer cells) [µM] | IC50 [2] [µM] | IC50 [3] [µM] | melting point [°C] | cytotoxic activity (in words, SAR discussion) [2]
COc1cccc2c(=O)n(-c3ccc(S(=O)(=O)NCC(=O)Nc4ccccc4)cc3)c(SCC(=O)Nc3ccccc3)nc12 [Compound 4a] | 20.9 ± 1 | 35 ± 1.2 | 19.6 ± 1.7 | 14.2 ± 0.4 | 37.5 ± 1.8 | 165 to 167 | 
COc1cccc2c(=O)n(-c3ccc(S(=O)(=O)NCC(=O)Nc4ccccc4C)cc3)c(SCC(=O)Nc3ccccc3C)nc12 [Compound 4b] | 32.7 ± 1.2 | 33.7 ± 0.8 | 11.4 ± 1.6 | 36.2 ± 2 | 35.8 ± 1 | 102 to 104 | 
COc1cccc2c(=O)n(-c3ccc(S(=O)(=O)NCC(=O)Nc4cccc(C)c4)cc3)c(SCC(=O)Nc3cccc(C)c3)nc12 [Compound 4c] | > 40 | > 40 | > 40 | > 40 | > 40 | 112 to 114 | abolishes the cytotoxicity
CCc1ccccc1NC(=O)CNS(=O)(=O)c1ccc(-n2c(SCC(=O)Nc3ccccc3CC)nc3c(OC)cccc3c2=O)cc1 [Compound 4e, N-(2-ethylphenyl)-2-((3-(4-(N-(2-((2-ethylphenyl)amino)-2-oxoethyl)sulfamoyl)-phe-nyl)-8-methoxy-4-oxo-3,4-dihydroquinazolin-2yl)thio)acetamide] | > 40 | > 40 | > 40 | > 40 | > 40 | 246 to 248 | no antiproliferative
CCc1ccc(NC(=O)CNS(=O)(=O)c2ccc(-n3c(SCC(=O)Nc4ccc(CC)cc4)nc4c(OC)cccc4c3=O)cc2)cc1 [Compound 4g, N-(4-ethylphenyl)-2-((3-(4-(N-(2-((4-ethylphenyl)amino)-2-oxoethyl)sulfamoyl)-phenyl)-8-methoxy-4-oxo-3,4-dihydroquinazolin-2yl)thio)acetamide] | > 40 | > 40 | > 40 | > 40 | > 40 | 219 to 221 | no antiproliferative
COc1ccc(NC(=O)CNS(=O)(=O)c2ccc(-n3c(SCC(=O)Nc4ccc(OC)cc4)nc4c(OC)cccc4c3=O)cc2)cc1 [Compound 4h, 2-(4-(8-Methoxy-2-((2-((4-methoxyphenyl)amino)-2-oxoethyl)thio)-4-oxoquinazolin-3(4H)-yl)phenylsulfonamido)-N-(4-methoxy-phenyl)acetamide] |  | 25.4 ± 0.95 | 13.3 ± 0.85 | 31.6 ± 1.3 | 31.7 ± 1 | 117 to 119 | 
CCOc1ccc(NC(=O)CNS(=O)(=O)c2ccc(-n3c(SCC(=O)Nc4ccc(OCC)cc4)nc4c(OC)cccc4c3=O)cc2)cc1 [Compound 4i, N-(4-Ethoxyphenyl)-2-((3-(4-N-(2((4-ethoxyphenyl)amino)-2-oxoethyl)sulfamoyl)-phenyl-8-methoxy-4-oxo-3,4-dihydroquinazolin-2-yl)thio)acetamide] | 18.2 ± 2.2 | 20.6 ± 1.6 | 13.8 ± 0.5 | 26.4 ± 0.79 | 22 ± 1.01 | > 350 | 
COc1cc(NC(=O)CNS(=O)(=O)c2ccc(-n3c(SCC(=O)Nc4cc(OC)cc(OC)c4)nc4c(OC)cccc4c3=O)cc2)cc(OC)c1 [Compound 4j, N-(3,5-Dimethoxyphenyl)-2-((3-(4-N-(2((3,5-dimethoxyphenyl)amino)-2-oxoethyl)-sulfa-moyl)phenyl-8-methoxy-4-oxo-3,4-dihydroquinazolin-2-yl)thio)acetamide] | > 40 | > 40 | > 40 | > 40 | > 40 | 239 to 241 | 
COc1cc(NC(=O)CNS(=O)(=O)c2ccc(-n3c(SCC(=O)Nc4cc(OC)c(OC)c(OC)c4)nc4c(OC)cccc4c3=O)cc2)cc(OC)c1OC [Compound 4k] | > 40 | > 40 | > 40 | > 40 | > 40 | 260 to 262 | 
COc1cccc2c(=O)n(-c3ccc(S(=O)(=O)NCC(=O)Nc4ccc([N+](=O)[O-])cc4C)cc3)c(SCC(=O)Nc3ccc([N+](=O)[O-])cc3C)nc12 [Compound 4l, 2-(4-(8-Methoxy-2-((2-((2-methyl-4-nitrophenyl)amino)-2-oxoethyl)thio)-4-oxoquinazolin-3(4H)-yl)phenylsulfonamido)-N-(2-methyl-4-nitrophenyl)acetamide] | > 40 | > 40 | > 40 | > 40 | > 40 | 127 to 129 | 
COc1cccc2c(=O)n(-c3ccc(S(=O)(=O)NCC(=O)Nc4c(C)cccc4[N+](=O)[O-])cc3)c(SCC(=O)Nc3c(C)cccc3[N+](=O)[O-])nc12 [Compound 4m, 2-(4-(8-Methoxy-2-((2-((2-methyl-6-nitrophenyl)amino)-2-oxoethyl)thio)-4-oxoquinazolin-3(4H)-yl)phenylsulfonamido)-N-(2-methyl-6-nitrophenyl)acetamide] | > 40 | > 40 | > 40 | > 40 | > 40 | 272 to 274 | 
COc1cccc2c1C(=O)c1c(O)c3c(c(O)c1C2=O)C[C@@](O)(C(=O)CO)C[C@@H]3O[C@H]1C[C@H](N)[C@H](O)[C@H](C)O1 [Doxorubicin, reference compound] | 3.7 ± 0.2 |  | 1.1 ± 0.01 | 1.4 ± 0.3 | 1.5 ± 0.05 |  | 
